Data: patent US8143251B2, “Triazolotriazines as kinase inhibitors” (Incyte Corporation, priority 2006, dated 2012)

Molecular target: T1, c-Met kinase (histidine-tagged c-Met catalytic domain fusion protein) (Homo sapiens, UniProt P08581)
T1 construct: histidine-tagged c-Met catalytic domain fusion protein (Invitrogen, #PV3143) was used for the assay; histidine tag; purchased Invitrogen PV3143
Experiment: In vitro c-Met kinase enzyme assay
Format: biochemical
Conditions: poly Glu-Tyr phosphorylation, 5 μM ATP, 25 minutes at 30° C.; read-out: IC50 for the inhibition of c-Met kinase
Experimental: Compounds were screened in vitro for their ability to inhibit c-Met kinase activity. The IC50 values of compounds for the inhibition of c-Met kinase were determined as described in the literature with some modifications (Wang, X. et al, Mol. Cancer. Ther. 2003, 2(11):1085-1092; Calic, M. et al., Croatica Chemical ACTA. 2005, 78(3):367-374). Briefly, histidine-tagged c-Met catalytic domain fusion protein (Invitrogen, #PV3143) was used for the assay. IC50 measurements were based on the degree of phosphorylation of poly Glu-Tyr (Sigma-Aldrich, #PO275) that was coated (0.01 mg/per well) on 96-well microplates (R&D systems, #DY990). The reaction was carried out in a 50 μL solution containing 50 mM HEPES (pH 7.5), 10 mM MnCl2, 10 mM MgCl2, 0.5 mM DTT, 100 μM Na3VO4, 5 μM ATP (Cell Signaling Technology, #9804) and serial dilutions of individual compounds. The reaction lasted for 25 minutes at 30° C. After the reaction was completed, the contents of the plates was discarded. […] The optical density was measured immediately using a microplate reader at 450 nm with wavelength correction at 540 nm. IC50 values were calculated with the GraphPad Prism software. The linear range (i.e., the time period over which the rate remained equivalent to the initial rate) was determined for the kinase and IC50 determinations were performed within this range. […]

T1 sequence (P08581 1078-1345 limits assumed): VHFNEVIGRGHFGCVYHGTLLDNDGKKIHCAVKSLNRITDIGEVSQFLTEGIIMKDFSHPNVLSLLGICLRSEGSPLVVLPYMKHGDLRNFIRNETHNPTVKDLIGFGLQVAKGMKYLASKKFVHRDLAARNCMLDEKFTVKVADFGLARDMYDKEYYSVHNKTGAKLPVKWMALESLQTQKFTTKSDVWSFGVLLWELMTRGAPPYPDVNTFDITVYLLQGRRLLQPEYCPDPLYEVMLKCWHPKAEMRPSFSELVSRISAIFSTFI

IC50: 12.9 nM
SMILES: COc1ccc(C2(c3nnc4ncc(-c5ccccc5)nn34)CC2)cc1 [Example 26, 3-[1-(4-Methoxyphenyl)cyclopropyl]-6-phenyl[1,2,4]triazolo[4,3-b][1,2,4]triazine]
